Read-outs that look alike come from different tables or passages of the source.
Experiments:
Type in all cases: in vivo
[1] = test system: Galium aparine; test: Greenhouse pre-emergence (PRE) herbicidal test on GALAP; conditions: PRE, GALAP; for inhibition at 200 g/ha: use rate 200 gai/ha
Text: (§1) The culture containers used were plastic pots containing loamy sand with approximately 3.0% of humus as substrate. The seeds of the test plants were sown separately for each species.
(§2) For the pre-emergence treatment, the active compounds, suspended or emulsified in water, were applied directly after sowing by means of finely distributing nozzles. The containers were irrigated gently to promote germination and growth and subsequently covered with transparent plastic hoods until the plants had rooted. This cover caused uniform germination of the test plants unless this was adversely affected by the active compounds.
(§3) Depending on the species, the plants were kept at 10-25° C. and 20-35° C., respectively.
(§4) The test period extended over 2 to 4 weeks. During this time, the plants were tended and their response to the individual treatments was evaluated.
(§5) Evaluation was carried out using a scale from 0 to 100. 100 means no emergence of the plants, or complete destruction of at least the above-ground parts, and 0 means no damage or normal course of growth. A good herbicidal activity is given at values of at least 70, and very good herbicidal activity is given at values of at least 85.
(§6) If not stated differently, the respective components A and B, and if appropriate, C were formulated as a 5% by weight strength emulsion concentrate and, with addition of the amount of solvent system, introduced into the spray liquor used for applying the active compound.
(§7) As indicated application was either post emergent (POST) at the respective growth stage (GS) of the weed (BBCH code), or pre-emergent (PRE).
(§8) Assessment was 20 days after treatment (DAT).

[2] = test system: Abutilon theophrasti; test: Greenhouse pre-emergence (PRE) herbicidal test on ABUTH
In short: (§9)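 Herbicidal effect was assessed 20 DAT after pre-emergence treatment of sown pots, using a 0-100 scale where 100 means no emergence or destruction of at least the above-ground parts.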

[3] = test system: Euphorbia heterophylla; test: Greenhouse pre-emergence (PRE) herbicidal test on EPHHL; conditions: for inhibition at 200 g/ha: use rate 200 gai/ha
In short: as §9

[4] = test system: Polygonum convolvulus; test: Greenhouse pre-emergence (PRE) herbicidal test on POLCO
Text: as §1, §2, §3, §4, §5, §6, §7, §8

[5] = test system: Avena fatua; test: Greenhouse pre-emergence (PRE) herbicidal test on AVEFA
Text: as §1, §2, §3, §4, §5, §6, §7, §8

[6] = test system: Alopecurus myosuroides; test: Greenhouse pre-emergence (PRE) herbicidal test on ALOMY; conditions: Alopecurus myosuroides, pre-emergence
In short: as §9

[7] = test system: Lolium multiflorum; test: Greenhouse pre-emergence (PRE) herbicidal test on LOLMU; conditions: for inhibition at 200 g/ha: use rate 200 gai/ha
In short: as §9

[8] = test system: Geranium pusillum; test: Greenhouse pre-emergence (PRE) herbicidal test on GERPU; conditions: Geranium pusillum, pre-emergence; for inhibition at 200 g/ha: use rate 200 gai/ha
Text: as §1, §2, §3, §4, §5, §6, §7, §8

[9] = test system: Brachiaria decumbens; test: Greenhouse pre-emergence (PRE) herbicidal test on BRADC; conditions: Urochloa decumbens; for inhibition at 200 g/ha: use rate 200 gai/ha
Text: as §1, §2, §3, §4, §5, §6, §7, §8

[10] = test system: Commelina benghalensis; test: Greenhouse pre-emergence (PRE) herbicidal test on COMBE; conditions: Commelina benghalensis, pre-emergence
In short: as §9

[11] = test system: SETFA; test: Greenhouse pre-emergence (PRE) herbicidal test on SETFA; conditions: Setaria faberi, use rate 50 gai/ha
[12] = test system: Ambrosia artemisiifolia; test: Greenhouse pre-emergence (PRE) herbicidal test on AMBEL; conditions: PRE, 20 DAT
[13] = test system: AMAPA; test: Greenhouse post-emergence (POST) herbicidal test on AMAPA; conditions: use rate 12.5 gai/ha, 20 DAT
[14] = test system: AMAPA; test: Greenhouse pre-emergence (PRE) herbicidal test on AMAPA; conditions: use rate 3.1 gai/ha, 20 DAT
[15] = test system: Amaranthus retroflexus; test: Greenhouse post-emergence (POST) herbicidal test on AMARE; conditions: Amaranthus retroflexus, post-emergence, 480 h, POST, AMARE, 20 DAT, read-out: % activity solo application
In short: (§10)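 POST spray at 3–15 cm plant height, BBCH stage as given; loamy sand, ~3.0% humus; 10-25° C / 20-35° C per species; 0–100 damage scale; read 20 DAT.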

[16] = test system: Ipomoea hederacea; test: Greenhouse post-emergence (POST) herbicidal test on IPOHE; conditions: Ipomoea hederacea, post-emergence, 480 h, POST, IPOHE, 20 DAT, read-out: % activity solo application
In short: as §10

[17] = test system: Echinochloa crus-galli; test: Greenhouse pre-emergence (PRE) herbicidal test on ECHCG; conditions: Echinochloa crus-galli, pre-emergence, 480 h, PRE, ECHCG, 20 DAT, read-out: % activity solo application
[18] = test system: Geranium pusillum; test: Greenhouse post-emergence (POST) herbicidal test on GERPU; conditions: Geranium pusillum, post-emergence, 480 h, POST, GERPU, 20 DAT
In short: as §10

[19] = test system: Commelina benghalensis; test: Greenhouse post-emergence (POST) herbicidal test on COMBE; conditions: 480 h, use rate 1.25 gai/ha, 20 DAT
Protocol: as §1
(§11) For the post-emergence treatment, the test plants were grown to a plant height of from 3 to 15 cm, depending on the plant habit, and only then treated with the active compounds which had been suspended or emulsified in water. To this end, the test plants were either sown directly, and grown in the same containers, or they were first grown separately as seedlings and transplanted into the test containers a few days prior to treatment.
as §3, §4, §5, §6, §7, §8

[20] = test system: Digitaria sanguinalis; test: Greenhouse post-emergence (POST) herbicidal test on DIGSA; conditions: Digitaria sanguinalis, post-emergence, 480 h, POST, DIGSA, 5 gai/ha, 20 DAT; read-out: % activity solo application
In short: as §10

[21] = test system: Ipomoea hederacea; test: Greenhouse pre-emergence (PRE) herbicidal test on IPOHE; conditions: Ipomoea hederacea, pre-emergence, 480 h, PRE, IPOHE, 20 DAT
Text: as §1, §2, §3, §4, §5, §6, §7, §8

[22] = test system: Setaria viridis; test: Greenhouse pre-emergence (PRE) herbicidal test on SETVI; conditions: Setaria viridis, pre-emergence, 480 h, PRE, SETVI, 20 DAT, read-out: % activity solo application
In short: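 First, each species was sown separately in loamy sand containing about 3.0% humus. Then the aqueous active compound was applied by finely distributing nozzles straight after sowing, pots were gently irrigated and covered with transparent hoods, and injury was assessed on a 0–100 scale at 20 DAT.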

[23] = test system: Amaranthus retroflexus; test: Greenhouse pre-emergence (PRE) herbicidal test on AMARE; conditions: Amaranthus retroflexus, pre-emergence, 480 h; PRE, AMARE, 1.25 gai/ha, 20 DAT; read-out: % activity solo application
In short: as §9

[24] = test system: Abutilon theophrasti; test: Greenhouse post-emergence (POST) herbicidal test on ABUTH; conditions: Abutilon theophrasti, post-emergence, 480 h, POST, ABUTH, 20 DAT, read-out: % activity solo application
In short: as §10

[25] = test system: Setaria viridis; test: Greenhouse post-emergence (POST) herbicidal test on SETVI; conditions: 480 h, use rate 5 gai/ha, 20 DAT
Protocol: as §1, §11, §3, §4, §5, §6, §7, §8

## CC1(C)CON(Cc2ccc(Cl)cc2Cl)C1=O [Bixlozone, bixlozone]
[1]; use rate 60 gai/ha
  % activity: 50%
[2]; PRE, ABUTH, use rate 60 gai/ha
  % activity: 0%
[3]; PRE, EPPHL, use rate 15 gai/ha
  % activity: 0%
[3]; PRE, EPPHL, use rate 60 gai/ha
  % activity: 0%
[4]; use rate 60 gai/ha
  % activity: 0%

## CCCCOCN(C(=O)CCl)c1c(CC)cccc1CC [Butachlor, butachlor]
[5]; use rate 50 gai/ha
  inhibition at 50 g/ha: 0%
[5]; use rate 200 gai/ha
  inhibition at 200 g/ha: 0%
[6]; ALOMY PRE, use rate 200 gai/ha
  inhibition at 200 g/ha: 0%
[7]; Lolium multiflorum, pre-emergence, LOLMU PRE, use rate 50 gai/ha
  inhibition at 50 g/ha: 0%
[7]; Lolium multiflorum, pre-emergence, LOLMU PRE
  inhibition at 200 g/ha: 0%
[8]; GERPU PRE, use rate 50 gai/ha
  inhibition at 50 g/ha: 55%
[8]; GERPU PRE
  inhibition at 200 g/ha: 25%
[9]; BRADC PRE
  inhibition at 200 g/ha: 30%
[2]; Abutilon theophrasti, pre-emergence, ABUTH PRE, use rate 50 gai/ha
  inhibition at 50 g/ha: 0%
[3]; Euphorbia heterophylla, pre-emergence, EPHHL PRE
  inhibition at 200 g/ha: 5%
[10]; COMBE PRE, use rate 50 gai/ha
  inhibition at 50 g/ha: 70%
[11]
  inhibition at 50 g/ha: 25%

## CCC(CC)Nc1c([N+](=O)[O-])cc(C)c(C)c1[N+](=O)[O-] [Pendimethalin, pendimethalin]
[7]; Lolium multiflorum, pre-emergence, PRE, LOLMU
  inhibition at 200 g/ha: 0%
[1]; Galium aparine, pre-emergence
  inhibition at 200 g/ha: 0%
[1]; Galium aparine, pre-emergence, use rate 800 gai/ha
  inhibition at 800 g/ha: 10%
[2]; Abutilon theophrasti, pre-emergence, PRE, ABUTH, use rate 200 gai/ha
  inhibition at 200 g/ha: 65%
[10]; PRE, COMBE, use rate 200 gai/ha
  inhibition at 200 g/ha: 40%
[10]; PRE, COMBE, use rate 800 gai/ha
  inhibition at 800 g/ha: 50%
[4]; Fallopia convolvulus, pre-emergence, use rate 800 gai/ha
  inhibition at 800 g/ha: 70%

## CCCOCCN(C(=O)CCl)c1c(CC)cccc1CC [Pretilachlor, pretilachlor]
[7]; Lolium multiflorum, pre-emergence, PRE, LOLMU, use rate 25 gai/ha
  inhibition at 25 g/ha: 0%
[8]; PRE, GERPU
  inhibition at 200 g/ha: 45%
[9]; PRE, BRADC, use rate 25 gai/ha
  inhibition at 25 g/ha: 0%
[9]; PRE, BRADC
  inhibition at 200 g/ha: 40%
[1]; Galium aparine, pre-emergence
  inhibition at 200 g/ha: 15%
[3]; Euphorbia heterophylla, pre-emergence, PRE, EPPHL, use rate 25 gai/ha
  inhibition at 25 g/ha: 0%
[3]; Euphorbia heterophylla, pre-emergence, PRE, EPPHL
  inhibition at 200 g/ha: 10%
[4]; Fallopia convolvulus, pre-emergence, use rate 25 gai/ha
  inhibition at 25 g/ha: 0%
[4]; Fallopia convolvulus, pre-emergence, use rate 200 gai/ha
  inhibition at 200 g/ha: 30%

## C#CCN(C)c1c(C#N)cnn1-c1nn2c(c1Cl)CCCC2 [Pyraclonil, pyraclonil]
[7]; PRE, use rate 12.5 gai/ha, 20 DAT
  % activity: 0%
[12]; use rate 12.5 gai/ha
  % activity: 0%
[13]
  % activity: 90%
[14]
  % activity: 50%

## CC(C)N(C)S(=O)(=O)NC(=O)c1cc(-n2c(=O)cc(C(F)(F)F)n(C)c2=O)c(F)cc1Cl [Saflufenacil, saflufenacil]
[15]; 1.25 gai/ha
  inhibition at 1.25 g/ha: 0%
[15]; 5 gai/ha
  inhibition at 5 g/ha: 0%
[6]; 480 h, PRE, ALOMY, 1.25 gai/ha, 20 DAT, read-out: % activity solo application
  inhibition at 1.25 g/ha: 20%
[6]; 480 h, PRE, ALOMY, 5 gai/ha, 20 DAT, read-out: % activity solo application
  inhibition at 5 g/ha: 10%
[16]; 1.25 gai/ha
  inhibition at 1.25 g/ha: 0%
[16]; 5 gai/ha
  inhibition at 5 g/ha: 10%
[7]; Lolium multiflorum, pre-emergence, 480 h, PRE, LOLMU, 1.25 gai/ha, 20 DAT, read-out: % activity solo application
  inhibition at 1.25 g/ha: 0%
[7]; Lolium multiflorum, pre-emergence, 480 h, PRE, LOLMU, 5 gai/ha, 20 DAT, read-out: % activity solo application
  inhibition at 5 g/ha: 0%
[7]; Lolium multiflorum, pre-emergence, 480 h, PRE, LOLMU, use rate 5 gai/ha, 20 DAT, read-out: % activity
  inhibition at 5 g/ha: 45%
[17]; 1.25 gai/ha
  inhibition at 1.25 g/ha: 0%
[17]; 5 gai/ha
  inhibition at 5 g/ha: 0%
[12]; Ambrosia artemisiifolia, pre-emergence, 480 h, AMBEL, 1.25 gai/ha, read-out: % activity solo application
  inhibition at 1.25 g/ha: 0%
[12]; Ambrosia artemisiifolia, pre-emergence, 480 h, AMBEL, 5 gai/ha, read-out: % activity solo application
  inhibition at 5 g/ha: 50%
[18]; use rate 2.5 gai/ha
  inhibition at […]: 60%
[18]; use rate 5 gai/ha, read-out: % activity
  inhibition at 5 g/ha: 80%
[19]
  inhibition at 1.25 g/ha: 60%
[20]
  inhibition at 5 g/ha: 0%
[2]; Abutilon theophrasti, pre-emergence, 480 h, PRE, ABUTH, 1.25 gai/ha, 20 DAT, read-out: % activity solo application
  inhibition at 1.25 g/ha: 10%
[3]; Euphorbia heterophylla, pre-emergence, 480 h, PRE, EPHHL, 1.25 gai/ha, 20 DAT, read-out: % activity solo application
  inhibition at 1.25 g/ha: 5%
[3]; Euphorbia heterophylla, pre-emergence, 480 h, PRE, EPHHL, 5 gai/ha, 20 DAT, read-out: % activity solo application
  inhibition at 5 g/ha: 50%
[21]; use rate 2.5 gai/ha
  inhibition at […]: 5%
[21]; use rate 5 gai/ha
  inhibition at 5 g/ha: 25%
[22]; 1.25 gai/ha
  inhibition at 1.25 g/ha: 0%
[22]; 5 gai/ha
  inhibition at 5 g/ha: 0%
[23]
  inhibition at 1.25 g/ha: 0%
[24]; 1.25 gai/ha
  inhibition at 1.25 g/ha: 5%
[24]; 5 gai/ha
  inhibition at 5 g/ha: 10%
[10]; 480 h, PRE, COMBE, 1.25 gai/ha, 20 DAT, read-out: % activity solo application
  inhibition at 1.25 g/ha: 5%
[25]
  inhibition at 5 g/ha: 60%

— patent publication US20260007133A1, “HERBICIDAL COMPOSITION COMPRISING AZINE COMPOUNDS” (BASF SE, priority 2022, published 2026)
